In patent US5663207A, “Gem-dichlorocyclopropanes as antitumor agents” (priority 1995, dated 1997):
Read-outs that look alike come from different tables or passages of the source.

Tests used:
estrogen receptor = target: T1, estrogen receptor (Rattus norvegicus, UniProt P06211); assay: Receptor binding assay: displacement of [3H]-estradiol from rat uterine cytosol; set-up: species or system rat (Sprague-Dawley); settings: for [3H]-estradiol displacement curve (in words): rat uterine cytosolic estrogen receptor; for RBA (relative binding affinity): relative to estradiol = 100%
T1 construct: ovariectomized rat uterine cytosolic estrogen receptor preparation; from tissue; host or cells: uterine cytosol of ovariectomized Sprague-Dawley rats (immature rats from Sasco are named as uterus source, mature ovariectomized rats)
T1 sequence (P06211 1-600): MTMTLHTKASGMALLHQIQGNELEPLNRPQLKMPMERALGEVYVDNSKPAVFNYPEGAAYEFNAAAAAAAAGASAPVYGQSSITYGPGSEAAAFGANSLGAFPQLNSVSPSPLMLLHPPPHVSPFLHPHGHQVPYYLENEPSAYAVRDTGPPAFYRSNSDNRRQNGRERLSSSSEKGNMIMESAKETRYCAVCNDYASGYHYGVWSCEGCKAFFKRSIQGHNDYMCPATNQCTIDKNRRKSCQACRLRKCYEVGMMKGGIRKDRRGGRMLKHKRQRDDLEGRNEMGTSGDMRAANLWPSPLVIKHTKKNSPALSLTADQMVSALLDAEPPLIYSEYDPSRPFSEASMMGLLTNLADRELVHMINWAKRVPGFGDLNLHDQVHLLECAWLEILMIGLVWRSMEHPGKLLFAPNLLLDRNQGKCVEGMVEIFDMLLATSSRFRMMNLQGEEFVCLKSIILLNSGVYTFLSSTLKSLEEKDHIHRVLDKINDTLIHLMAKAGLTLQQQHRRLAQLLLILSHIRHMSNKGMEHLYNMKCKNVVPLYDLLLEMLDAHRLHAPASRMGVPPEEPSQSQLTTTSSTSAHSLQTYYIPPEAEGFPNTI
From the text: (§1) The biological evaluation of the test compounds consisted of the in vitro rat cytosolic estradiol receptor binding assay, the in vivo immature mouse uterotrophic (estrogenic) and antiuterotrophic (antiestrogenic) assays, and the in vitro suppression of the proliferation of the ER positive MCF-7 human breast cancer cell line. Estradiol (pure agonist), TAM (agonist in mice and antagonist in MCF-7), MER 25 (pure antagonist) and Analog II (antagonist in mice) were used in the assay as standards.
(§2) Vital-free immature female Swiss-Webster mice were obtained at 17-19 days of age from Sasco weighing 8-10 g, and were used in the uterotrophic and antiuterotrophic assays. Immature female Sprague-Dawley rats, obtained at 17-19 days of age from Sasco, weighing 28-33 g, were used as sources of uteri for the estradiol receptor binding assay. Animals were housed in wire topped polycarbonate cages at six animals per cage, with the environment controlled at 25° C. and a 12 h light/dark cycle. The animals received a diet of Wayne Lab Blox rodent chow and tap water ad libitum.
The RBAs of the test compounds were determined by the displacement of [^3 H]-estradiol in vitro, as described previously (DAY, B. W., […], R. A., JAIN, P., PENTO, J. T., MOUSISSIAN, G. K. AND MEYER, K. L. (1991), "Synthesis and biological evaluation of a series of 1,1-dichloro-2,2,3-triarylcyclopropanes as pure antiestrogens", Journal of Medicinal Chemistry, 34, 842; KORENMAN, S. G. (1969), "Comparative binding affinity of estrogens and its relation to estrogenic potency", Steroid, 13, 163). Mature female Sprague-Dawley rats were ovariectomized at least two weeks prior to the receptor binding experiment. Each test compound was assayed at three concentrations in duplicate over a range of 10^-3 -10^-5 M and 10^-6 -10^-8 M for the estradiol standard. The non-specific binding was determined by a parallel incubation of each compound with the addition of diethylstilbestrol to give a final concentration of 2×10^-5 M DES which was sufficient to saturate all the estrogen receptors present in the cytosolic fraction. Specific displacement for each compound was determined by subtraction of nonspecific displacement from total displacement. The [^3 H]-estradioldisplacement curve for each test compound was determined by linear repression analysis and plotted graphically. The relative binding affinity for each compound was calculated (BLISS, C.I. (1967), "The statistics in biology", McGraw Hill, Inc: New York).
^a Determined by competitive radiometric binding assay with rat
uterine cytosol as a source of receptor, [^3 H]estradiol as tracer,
and dextrancoated charcoal as absorbant for free ligand.
^c Binding affinities are expressed relative to that of estradiol =
100% (RBA = relative binding affinity) and are the average of duplicate
determinations minus nonspecific binding.
The relative binding affinities (RBAs), as determined by the competitive radiometric binding assay and measured by [^3 H]-estradiol displacement from the ovariectomized rat uterine cytosolic estrogen receptor preparation, after subtracting non-specific receptor binding, were calculated for all of the synthesized target compounds, TAM, MER 25, Analog II, and estradiol. The displacement curves were plotted as percent receptor-bound [^3 H]-estrodiol versus concentration of test compounds (not shown) and the receptor binding affinity of each compound is presented in Table II.

[1] = system: MCF-7 human breast cancer cells; assay: In vitro MCF-7 human breast cancer cell growth inhibition assay; assay type: cell-based; settings: for inhibition at 1 µM: Homo sapiens
From the text: as §1
MCF-7 (estrogen-receptor positive) human breast cancer cells (obtained from the Michigan Cancer Foundation, Detroit, Mich.) were grown at 37° C. in 75 cm^2 tissue culture (T-75) flasks, as monolayer cultures in RPMI 1640 phenol red-free media supplemented with 2 mM L-glutamine, gentamicin (50 μg/mL), penicillin (100 units/mL), streptomycin (100 μg/mL ) and calf serum (5%). Cultures were grown in an incubator 37° C. in a humid 5% CO2 atmosphere, and fed on alternate days. Expotential growth was maintained by subculturing at eight day intervals when the cells per T-75 flask reached 10 to 12×10^6 cells. Cells were trypsinized, washed and plated in multiwell plates at a density of 5×10^4 cells/well in 3 mL of RPMI 1640 media. The cells were allowed to attach and were in logarithmic growth when the test compounds were added. The test compounds (10^-6 M) in the presence or absence of a 10-fold lower dose of estradiol were dissolved in a polyethylene glycol 400: ethanol (55:45) mixture and added in the culture media in duplicate. Control samples received vehicle alone at the same concentration used in the treatment groups. The final concentration of the vehicle mixture was 0.1% of the incubation media. Cell growth was measured on alternate days using the hemocytometric trypan blue exclusion method. Percent inhibition of MCF-7 cells was calculated as the ratio of the control mean cell count per well minus the treatment group mean cell count per well to the control mean cell count per well, multiplied by 100.
^b % MCF7 inhibition was calculated as follows: […]
Thirteen compounds, Analog II, TAM, and MER 25 were tested for their antiproliferative activity in the MCF-7 human breast cancer cell line (Table II). Compounds were tested at a concentration of 10^-6 M in the presence or absence of 10^-7 M estradiol to assess their ability to alter the growth of the calls (Table II). The 10^-6 M concentration was selected since it was reported that the inhibition of the MCF-7 cells by antiestrogens and TAM occurred either at that concentration or less, and were both selective and estrogen receptor specific. Concentrations of antiestrogens greater than 5×10^-6 M were reported to have nonspecific cytotoxic effects (BRIAND, P. AND […], A. E. (1984), "Effect of estrogen and antiestrogen on the human breast cancer cell line MCF-7 adapted to growth at low serum concentration", Cancer Research, 44, 1114).

[2] = system: Immature Swiss-Webster female mice (uterine weight); assay: Uterotrophic assay for estrogenic activity in immature mice; assay type: in vivo, mouse (Swiss-Webster); settings: for uterine weight response (estrogenic activity, in words): doses of 5, 25 and 100 μg (total dose)
From the text: The biological evaluation of the test compounds consisted of the in vitro rat cytosolic estradiol receptor binding assay, the in vivo immature mouse uterotrophic (estrogenic) and antiuterotrophic (antiestrogenic) assays, and the in vitro suppression of the proliferation of the ER positive MCF-7 human breast cancer cell line.
as §2
Immature Swiss-Webster female mice (8-15 g) at 17-19 days of age were used. Estradiol was used in the dosage range of […] (total dose) as the assay standard. Each cyclopropyl analogue was examined at doses of 5, 25, and 100 μg (total dose). […] Estrogenic activity was measured as an increase in uterine weight produced by each test compound.

[3] = MCF7, 10^-6 M, versus control mean cell count, read-out: MCF-7 Inhibition
[4] = MCF7, 10^-6 M, printed as dash with footnote g, read-out: MCF-7 Inhibition
[5] = retested at 100, 250, and 500 μg
[6] = average of duplicate determinations minus nonspecific binding
[7] = MCF7, read-out: MCF-7 Inhibition

| Compound | RBA ranking (in words) (estrogen receptor; among the compounds tested) | [3H]-estradiol displacement curve (in words) (estrogen receptor) | RBA (relative binding affinity) (estrogen receptor; given as dash with footnote e) | effect on MCF-7 cell growth (in words) ([1]; 10^-6 M) | inhibition at 1 µM [1, 3] | uterine weight response (estrogenic activity, in words) [2] | inhibition at 1 µM [1, 4] | uterotrophic response on retest (in words) [2, 5] | RBA (relative binding affinity) (estrogen receptor; [6]) | inhibition at 1 µM [1, 7] | uterotrophic response on retest (in words) ([2]; retested at 25, 100, and 250 μg) |
| --- | --- | --- | --- | --- | --- | --- | --- | --- | --- | --- | --- |
| COc1ccc([C@H]2[C@@H](c3ccccc3)C2(Cl)Cl)cc1 (relative stereo) [Compound 8, 1,1-Dichloro-cis-2-(p-methoxyphenyl)-3-phenylcyclopropane] | lowest RBA | dose-dependent displacement curves with shallower slopes than their acetoxy and phenolic analogues | --^e (Less than 0.01%.) | inhibited cell growth | 25.3% | well below the control group | – | – | – | – | – |
| COc1ccc([C@H]2[C@H](c3ccccc3)C2(Cl)Cl)cc1 (relative stereo) [Compound 16, 1,1-Dichloro-trans-2-(p-methoxyphenyl)-3-phenylcyclopropane] | – | dose-dependent displacement curves with shallower slopes than their acetoxy and phenolic analogues | --^e (Less than 0.01%.) | did not | – | slight increase in uterine weight at doses of 25 and 100 μg | < 10% | no significant uterotrophic responses | – | – | – |
| CC(=O)Oc1ccc([C@H]2[C@H](c3ccccc3)C2(Cl)Cl)cc1 (relative stereo) [Compound 18, 1,1-Dichloro-trans-2-(p-acetoxyphenyl)-3-phenylcyclopropane] | – | – | – | did not | – | – | < 10% | – | 0.25% | – | – |
| COc1ccc([C@@H]2[C@H](c3ccc(OC)cc3)C2(Cl)Cl)cc1 [Compound 14, 1,1-Dichloro-cis-2,3-bis-(p-methoxyphenyl) cyclopropane] | – | dose-dependent displacement curves with shallower slopes than their acetoxy and phenolic analogues | – | inhibited cell growth | 37% | – | – | – | 0.01% | – | – |
| COc1ccc(C2(c3ccc(OC)cc3)CC2(Cl)Cl)cc1 [Compound 23, 1,1-Dichloro-2,2-bis-(p-methoxyphenyl)cyclopropane] | – | dose-dependent displacement curves with shallower slopes than their acetoxy and phenolic analogues | --^e (Less than 0.01%.) | inhibited cell growth | – | well below the control group | – | – | – | 30% | – |
| COc1ccc(C2(c3ccc(O)cc3)CC2(Cl)Cl)cc1 (stereo not shown) [Compound 24, 1,1-Dichloro-2-(p-methoxyphenyl)-2-(p-hydroxyphenyl)cyclopropane] | – | – | – | only 23 inhibited cell growth | – | – | – | – | 0.02% | < 10% | – |
| Oc1ccc(C2(c3ccc(O)cc3)CC2(Cl)Cl)cc1 [Compound 25, 1,1-Dichloro-2,2-bis-(p-hydroxyphenyl) cyclopropane] | – | – | – | only 23 inhibited cell growth | – | well below the control group | – | – | 0.04% | < 10% | – |
| COc1ccc(C2(c3ccc(OC)cc3)C(Cl)(Cl)C23CCCCC3)cc1 [Compound 29, 1,1-Dichloro-2,2-bis-(p-methoxyphenyl)-spiro[2.5]octane] | – | dose-dependent displacement curves with shallower slopes than their acetoxy and phenolic analogues | --^e (Less than 0.01%.) | active inhibitors of cell growth | – | slight increase in uterine weight at doses of 25 and 100 μg | – | no significant uterotrophic responses | – | 37% | – |
| CC(=O)Oc1ccc(C2(c3ccc(OC(C)=O)cc3)C(Cl)(Cl)C23CCCCC3)cc1 [Compound 31, 1,1-Dichloro-2,2-bis-(p-acetoxyphenyl)-spiro[2.5]octane] | – | – | – | – | – | well below the control group | – | – | 0.05% | < 10% | – |
| COc1ccc(C2(c3ccc(OC)cc3)C(c3ccccc3)C2(Cl)Cl)cc1 (stereo not shown) [Compound 35, 1,1-Dichloro-2,2-bis-(p-methoxyphenyl)-3-phenylcyclopropane] | – | dose-dependent displacement curves with shallower slopes than their acetoxy and phenolic analogues | --^e (Less than 0.01%.) | did not alter cell growth | – | slight increase in uterine weight at doses of 25 and 100 μg | – | – | – | < 10% | no significant uterotrophic responses |
